Experimental data as given in US20080312169A1, “Cosmetic use of D-ribose” (priority 2007, published 2008).

Tests used:
NHDF = assay: ATP production by NHDF in culture under conditions of hypoxia; format: cell-based, human; conditions: 0.05% D-ribose, 24 h pretreatment, after six hours of severe hypoxia (oxygen<2%)
Method: The inventors have measured the effect of D-ribose on the production of ATP by NHDF in culture, under conditions of hypoxia. The cells used were cultivated in flasks of normal human epidermal cells (NHDF) in a medium of DMEM with 10% fetal bovine serum, incubated at 37° C. in an atmosphere of 5% CO2, and 95% air until 80% confluent. On Day 1, a first measure of the level of ATP was determined on the non-treated, non-stressed NHDF. Two sets of six duplicates were 15 pretreated for 24 hours with 0.05% ribose or not treated as control. At Day 2, before the induction of hypoxia, one set of treated and control cells was harvested to measure the level of ATP. The cells of the second set were suspended, the medium renewed with DMEM with 10% fetal bovine serum with HEPES buffer in order to maintain the pH within physiological conditions during hypoxia and with EDTA in order to prevent the agglutination of the cells. The cells were held in an incubator held at 37° C., in which the atmosphere had been previously replaced by nitrogen. The cells were incubated for six hours in a condition of severe hypoxia (oxygen<2%) in the presence of 0.05% D-ribose versus the non-treated control. Recovery of the cells and measurement of the ATP was followed in the treated and control cells. […]

[1] = test system: normal human dermal fibroblasts (NHDF); assay: Oxygen consumption (mitochondrial and cytoplasmic respiration) of NHDF in culture, BD Oxygen Biosensor System; format: cell-based; conditions: 0.05% D-ribose, two hours of contact, six wells
Method: The inventors measured the effect of D-ribose on mitochondrial and cytoplasmic respiration of normal human dermal fibroblasts (NHDF) in culture. The cells were cultivated at 37° C. under an atmosphere of 5% CO2, in a culture solution of DMEM supplemented with 10% bovine fetal serum. […] Thus, D-ribose augments the consumption of oxygen in the cells, and consequently, the metabolism of cutaneous cells and tissues.

With `O=C[C@H](O)[C@H](O)[C@H](O)CO` [D-ribose] as the compound, how does the “recovery of the ATP levels, of the base levels” value (NHDF) read?
Its value is “about 19%”.

What about the “augmentation of cytoplasmic respiration over control” value [1] of the same compound?
The value was 37%.

And the “augmentation of mitochondrial respiration over control” value [1]?
The value was 31%.
